# Laboratory results from patent US10100010B1, “4-methoxy pyrrole derivatives or salts thereof and pharmaceutical composition comprising the same” (Daewoong Pharmaceutical Co., Ltd., priority 2015, dated 2018).
# How the values were obtained:
# [1] = tested on: basal gastric acid secretion in pylorus-ligated rats; test: Inhibitory effects on basal gastric acid secretion in pylorus-ligated rats (Shay's rat model); type: in vivo, Sprague Dawley (SD) rats; settings: 2.0 mg/kg into the duodenum, 5 hours after ligation
# Experimental: Inhibitory effects of the compounds prepared in Examples 2, 8 and 22 on basal gastric acid secretion were measured according to Shay's rat model (Shay, H., et al., 1945, gastroenterology, 5, p 43-61). Male Sprague Dawley (SD) rats (body weight 180-220 g) were divided into 4 groups (n=6-7) and fasted for 18 hours with free access to water. Under isoflurane anesthesia, the abdomens of the rats were incised and then the pylorus was ligated. Immediately after ligation, control group was administered with 2 mL/kg of 0.5% methyl cellulose (MC) aqueous solution into the duodenum, and the other groups were administered with test compounds suspended in 0.5% methyl cellulose (MC) aqueous solution at a dose of 2.0 mg/kg/2 ml. 5 hours after ligation, the test animals were sacrificed, and gastric contents were removed. The removed contents were centrifuged at 4,000×g for 10 minutes and the supernatant was separated to obtain the gastric juice. The amount and pH of the gastric juice were measured and the acidity in the gastric juice was measured by 0.1N NaOH volume (ueq/mL) required for the titration of gastric acid to pH 7.0. Total acid output was measured by multiplying the acidity of the gastric juice by the amount of the gastric juice. % inhibitory activity of test compounds were calculated according to the following equation, and the results are shown in Table 2. % inhibitory activity of test compound=[(total acid output of control group-total acid output of the group treated with test compounds)/total acid output of control group]×100 [Equation 1]
# [2] = tested on: indomethacin-induced gastric damage in rats; test: Gastric damage inhibitory activity against indomethacin-induced gastric damage in rats; type: in vivo, Sprague Dawley (SD) rats; settings: 2.0 mg/kg oral, 1 hour before indomethacin 80 mg/kg
# Experimental: The inhibitory activity against the gastric damage of the compounds prepared in Examples 2 and 8 was measured using indomethacin model (Chiou., Et al., 2005, gastroenterology, 128, p 63-73). Male Sprague Dawley (SD) rats (body weight 180-220 g) was divided into 5 groups (n=10) and fasted for 24 hours with free access to water. Control group was orally administered with 5 mL/kg of 0.5% methyl cellulose (MC) aqueous solution, and the other groups were orally administered with test compounds suspended in 0.5% methyl cellulose (MC) aqueous solution at a dose of 2.0 mg/kg/5 ml. For comparison, the compound of Example 134 (Comparative Example 1) and the compound of Example 165 (Comparative Example 2) in International Patent Publication No. WO 2006/036024 were orally administered at a dose of 2.0 mg/kg/5 ml by suspending 0.5% methylcellulose (MC) aqueous solution, respectively. […] The incised stomach was placed on a fixture, fixed by a fixing pin while spreading out using a forcep and then the gastric damage area was measured. % Inhibitory activity of test compounds was calculated according to the following Equation 2, and the results are shown in Table 3. % Inhibitory activity of test compound=[1−(gastric damage area % of the group treated with test compounds)/(gastric damage area % of control group)]×100 [Equation 2]
# [3] = tested on: H. pylori; test: Antimicrobial activity against H. pylori, MIC by agar dilution method; type: cell-based; settings: Helicobacter pylori
smiles,measurement,setting,value
"CNCc1cn(S(=O)(=O)c2cccc(F)c2)c(-c2ccc(F)cc2F)c1OC.Cl [Example 8, 1-(5-(2,4-difluorophenyl)-1-((3-fluorophenyl)sulfonyl)-4-methoxy-1H-pyrrol-3-yl)-N-methylmethanamine hydrochloride]",% inhibitory activity (total acid output),[1],90.5%
same,% inhibitory activity (gastric damage area),[2],92.2%
same,MIC,[3]; strain 45 (HPKTCC B0004),75 µg/mL
same,MIC,[3]; strain 51 (HPKTCC B0006),75 µg/mL
same,MIC,[3]; strain 52 (HPKTCC B0007),75 µg/mL
same,MIC,[3]; strain 92-33-1 (HPKTCC B0182),75 µg/mL
same,MIC,[3]; strain 92-82-1 (HPKTCC B0233),75 µg/mL
same,MIC,[3]; strain 92-157 (HPKTCC B0152),75 µg/mL
same,MIC,[3]; strain 118 (HPKTCC B0017),150 µg/mL
same,MIC,[3]; strain 126 (HPKTCC B0020),150 µg/mL
same,MIC,[3]; strain 127 (HPKTCC B0021),75 µg/mL
same,MIC,[3]; strain 133 (HPKTCC B0023),37.5 µg/mL
same,MIC,[3]; strain 134 (HPKTCC B0024),75 µg/mL
same,MIC,[3]; strain 138 (HPKTCC B0026),75 µg/mL
same,MIC,[3]; strain 156 (HPKTCC B0035),150 µg/mL
same,MIC,[3]; strain 159 (HPKTCC B0037),150 µg/mL
same,MIC,[3]; strain 164 (HPKTCC B0040),75 µg/mL
same,MIC,[3]; strain 183 (HPKTCC B0047),150 µg/mL
same,MIC,[3]; strain 193 (HPKTCC B0051),75 µg/mL
same,MIC,[3]; strain 198 (HPKTCC B0055),75 µg/mL
same,MIC,[3]; strain 205 (HPKTCC B0058),75 µg/mL
same,MIC,[3]; strain 210 (HPKTCC B0061),75 µg/mL
same,MIC,[3]; strain 221 (HPKTCC B0068),75 µg/mL
same,MIC,[3]; strain 228 (HPKTCC B0071),75 µg/mL
same,MIC,[3]; strain 235 (HPKTCC B0074),75 µg/mL
same,MIC,[3]; strain 236 (HPKTCC B0075),75 µg/mL
same,MIC,[3]; strain 302 (HPKTCC B0088),75 µg/mL
same,MIC,[3]; strain 26695 (HPKTCC B0100),75 µg/mL
same,MIC,[3]; strain 26695 CHGKG (HPKTCC B3412),150 µg/mL
same,MIC,[3]; strain CH24 (HPKTCC B0508),75 µg/mL
same,MIC,[3]; strain CH94 (HPKTCC B0582),37.5 µg/mL
same,MIC,[3]; strain CH173 (HPKTCC B0494),75 µg/mL
same,MIC,[3]; strain CH175 (HPKTCC B0496),75 µg/mL
same,MIC,[3]; strain CH189 (HPKTCC B0498),75 µg/mL
same,MIC,[3]; strain CH192 (HPKTCC B0500),75 µg/mL
same,MIC,[3]; strain CH272 (HPKTCC B0516),75 µg/mL
same,MIC,[3]; strain CH369 (HPKTCC B0522),75 µg/mL
same,MIC,[3]; strain CH381 (HPKTCC B0524),75 µg/mL
same,MIC,[3]; strain CH498 (HPKTCC B0536),75 µg/mL
same,MIC,[3]; strain CH502 (HPKTCC B0537),75 µg/mL
same,MIC,[3]; strain CH523 (HPKTCC B0541),75 µg/mL
same,MIC,[3]; strain CH541 (HPKTCC B0548),75 µg/mL
same,MIC,[3]; strain CH588 (HPKTCC B0556),75 µg/mL
same,MIC,[3]; strain CH609 (HPKTCC B0558),75 µg/mL
same,MIC,[3]; strain CH612 (HPKTCC B0559),75 µg/mL
same,MIC,[3]; strain CH631 (HPKTCC B0560),75 µg/mL
same,MIC,[3]; strain CH635 (HPKTCC B0562),75 µg/mL
same,MIC,[3]; strain CH674 (HPKTCC B0564),75 µg/mL
same,MIC,[3]; strain CH1056 (HPKTCC B0487),75 µg/mL
same,MIC,[3]; strain CJH7 (HPKTCC B0606),75 µg/mL
same,MIC,[3]; strain CJH8 (HPKTCC B0608),37.5 µg/mL
same,MIC,[3]; strain CJH9 (HPKTCC B0610),75 µg/mL
same,MIC,[3]; strain CJH10 (HPKTCC B0587),75 µg/mL
same,MIC,[3]; strain CJH13 (HPKTCC B0589),75 µg/mL
same,MIC,[3]; strain CJH31 (HPKTCC B0594),75 µg/mL
same,MIC,[3]; strain CJH33 (HPKTCC B0595),75 µg/mL
same,MIC,[3]; strain CJH43 (HPKTCC B0596),75 µg/mL
same,MIC,[3]; strain CJH50 (HPKTCC B0599),75 µg/mL
same,MIC,[3]; strain G88001 (HPKTCC B0722),75 µg/mL
same,MIC,[3]; strain G88007 (HPKTCC B0725),75 µg/mL
same,MIC,[3]; strain J99 (HPKTCC B0748),75 µg/mL
same,MIC,[3]; strain SS1-P-4′ (HPKTCC B3392),37.5 µg/mL
